Common to all, as to experiment: Bliss excess, mean over the matrix (fraction); higher = more synergy
For test [1], the system named is NCI-H1993 (Lung Adenocarcinoma). The method, boiled down: (§1)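 Bliss excess equals the observed combination effect minus the expected value EA + EB − EA·EB, where EA and EB are the effects of each agent alone. Combination Emax is the second-highest inhibition within the matrix. Inhibition was scaled from CellTiter-Glo 2.0 luminescence, with 0 set by vehicle wells and 1 by blank wells, after 72 hours of two-drug dosing of cells plated in 1536-well plates.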

Test [2] concerns COLO-668 (Small Cell Lung Carcinoma). The method, boiled down:
as §1

Test [3] deals with NCI-H1355 (Lung Adenocarcinoma). Put shortly:
as §1

Test [4] concerns SKN (Other Solid Carcinomas). The method, boiled down: as §1
Test [5] deals with MDA-MB-453 (Breast Carcinoma). The method, boiled down:
as §1

In test [6] the test system is A4-Fuk (B-Lymphoblastic Leukemia). The method, boiled down: as §1
Test [7] has as its system ME-180 (Cervical Carcinoma). Put shortly: as §1
The subject of test [8] is EFO-21 (Ovarian Carcinoma). The method, boiled down:
as §1

For test [9], the system named is Ca-Ski (Cervical Carcinoma). Put shortly: as §1
The test system of test [10] is SK-N-AS (Neuroblastoma). Put shortly:
as §1

Test [11] deals with OE33 (Esophageal Adenocarcinoma). Put shortly:
as §1

Test [12] has as its system MOG-G-UVW (Low Grade Glioma). Put shortly:
as §1

Test [13] has as its system ML-2 (Acute Myeloid Leukemia). The method, boiled down:
as §1

For test [14], the system named is NCI-H522 (Lung Adenocarcinoma). The method, boiled down: as §1
Test [15] concerns HAL-01 (B-Lymphoblastic Leukemia). The method, boiled down: as §1
The test system of test [16] is SW872 (Other Solid Carcinomas). Put shortly: as §1
For test [17], the system named is SW982 (Other Solid Carcinomas). The method, boiled down: as §1
In test [18] the test system is Mo-T (Other Blood Carcinomas). The method, boiled down: as §1
The subject of test [19] is KMRC-1 (Kidney Carcinoma). The method, boiled down: as §1
The test system of test [20] is MOLT-4 (T-Lymphoblastic Leukemia). The method, boiled down: as §1

In the case of `Cc1cc2ncnn2cc1Nc1ncc2c(n1)n(C1CCOCC1)c(=O)n2C` [AZD7648] + CN(C)CCCOc1ccc(-c2ccc3ncc4c(c3c2)n(C2CCOCC2)c(=O)n4C)cn1 [AZD0156] (first compound max 10 µM, 7x7, partner max 1 µM), the Bliss excess in [1] is -0.0225; in test [2] it was -0.0252; in [3], -0.033; in test [4], 0.0229; in test [5] it was 0.0257; in test [6], 0.0001. Also, the Bliss excess was -0.0167 in test [7]; -0.0063 in test [8]; 0.0424 in test [9]; -0.008 in test [10]; 0.0005 in test [11]; 0.0206 in test [12]. In addition, the Bliss excess in [13] is -0.0154; in test [14], -0.0127; in test [15] it was -0.0058; in [16], 0.0713; in test [17], -0.0471; in test [18], -0.122. Besides, the values for the Bliss excess in test [19] and in test [20] were 0.0106 and 0.0068, respectively.
As to `Cc1cc2ncnn2cc1Nc1ncc2c(n1)n(C1CCOCC1)c(=O)n2C` [AZD7648] + COc1cc([C@@H]2c3cc4c(cc3[C@@H](O[C@@H]3O[C@@H]5CO[C@@H](C)O[C@H]5[C@H](O)[C@H]3O)[C@H]3COC(=O)[C@H]23)OCO4)cc(OC)c1O [Etoposide] (first compound max 10 µM, 7x7, partner max 10 µM), the Bliss excess in test [1] was -0.0083; in test [2], 0.0429; in test [3], 0.0529; in [4], 0.0503; in test [5], -0.0136; in test [6], -0.0187. The Bliss excess in [7] worked out at 0.12; in [8] it was 0.0562; in test [9], 0.103; in [10] it was 0.0684; in test [11], 0.0247; in [12], 0.164. Besides, the Bliss excess in [13] was determined as 0.125; in [14], 0.0178; in test [15], 0.0962; in [16] it was 0.106; in [17], 0.142; in test [18], 0.0928. In addition, the Bliss excess in test [19] came out at 0.0859; in test [20], 0.167.
On to `Cc1cc2ncnn2cc1Nc1ncc2c(n1)n(C1CCOCC1)c(=O)n2C` [AZD7648] + C[C@@H]1COCCN1C2=NC(=NC(=C2)C3(CC3)[S@](=N)(=O)C)C4=C5C=CNC5=NC=C4 [AZD6738] (first compound max 10 µM, 7x7, partner max 10 µM), for which the Bliss excess in test [1] was 0.0469; in test [2] it was 0.0093; in [3], 0.0296; in test [4], 0.0038; in test [5], 0.0076; in test [6], -0.0768. Moreover, the Bliss excess in [7] is -0.002; in test [8], 0.053; in test [9] it was 0.0404; in [10] it was 0.0381; in test [11] it was -0.0187; in test [12] it was 0.0717. Also, the Bliss excess in test [13] is -0.0817; in [14] it was 0.0231; in test [15] it was -0.0048; in test [16], 0.0801; in test [17], -0.096; in test [18], -0.0956. Further, the Bliss excess in test [19] was determined as 0.0397; in [20], 0.0427.
As for `Cc1cc2ncnn2cc1Nc1ncc2c(n1)n(C1CCOCC1)c(=O)n2C` [AZD7648] + O=C(c1cc(Cc2n[nH]c(=O)c3ccccc23)ccc1F)N1CCN(C(=O)C2CC2)CC1 [Olaparib] (first compound max 10 µM, 7x7, partner max 10 µM), the Bliss excess is -0.0321 in [1]; -0.0105 in test [2]; -0.0538 in [3]; -0.0448 in test [4]; -0.0144 in test [5]; -0.038 in [6]. Besides, the Bliss excess in test [7] was -0.0432; in test [8] it was -0.045; in test [9], -0.0467; in test [10] it was -0.0337; in [11] it was -0.0359; in test [12] it was -0.0052. Besides, the Bliss excess in test [13] was -0.0218; in test [14] it was -0.0308; in [15], 0.0522; in [16] it was -0.0126; in test [17], 0.0002; in test [18], -0.049. Further, the Bliss excess in test [19] is -0.015; in [20], -0.0277.
Turning to `Cc1nc(Nc2ncc(C(=O)Nc3c(C)cccc3Cl)s2)cc(N2CCN(CCO)CC2)n1` [Dasatinib] + CC(=O)Nc1cccc(-n2c(=O)n(C3CC3)c(=O)c3c(Nc4ccc(I)cc4F)n(C)c(=O)c(C)c32)c1 [Trametinib] (first compound max 2 µM, 7x7, partner max 1 µM), the Bliss excess is -0.0254 in test [1]; -0.0121 in [2]; 0.0328 in test [3]; -0.0618 in test [4]; -0.035 in test [5]; -0.0013 in test [6]. In addition, the Bliss excess in test [7] was 0.0171; in test [8] it was 0.0296; in test [9] it was 0.0639; in [10], 0.0361; in test [11], -0.0082; in test [12] it was -0.028. In addition, the Bliss excess is -0.122 in [13]; -0.0082 in test [14]; 0.0436 in [15]; 0.101 in test [16]; -0.0319 in test [17]; -0.0835 in [18]. Also, the Bliss excess was -0.0009 in [19] and 0.0717 in test [20].
